Source: patent US20260137706A1, “METHODS OF TREATING INFLAMMATORY DISEASES” (INTERLINE THERAPEUTICS, INC., priority 2023, published 2026)

Assays:
[1] = system: NF-κB pathway (SEAP) in THP1-Dual cells; assay: THP-1 Dual cell SEAP assay (L18-MDP stimulated); format: cell-based; conditions: Homo sapiens, THP1-Dual, read-out: NF-κB THP1 IC50 bin
Procedure, shortened: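 IC50 values derive from non-linear regression of % inhibition, calculated against DMSO/L18-MDP-treated wells after media-only subtraction. NF-κB SEAP activity was read at OD 620-655 nm (QUANTI-Blue, 2 h, 37 °C) from supernatants of THP1-Dual cells. Cells had been compound-treated 30 min before overnight (20-24 h) stimulation with 10 ng/mL final L18-MDP.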

[2] = molecular target: T1, binding of His-XIAP(BIR2)-avi fusion protein to GST-RIPK2 fusion protein (RIPK2/XIAP) (Homo sapiens, UniProt O43353); assay: RIPK2-XIAP binding competition PPI assay (TR-FRET); conditions: RIPK2/XIAP binding competition PPI assay; for Emax: Amax, read-out: PPI Amax bin; for IC50: read-out: PPI IC50 bin
T1 construct: made in house; host or cells: baculovirus infected Sf9 cells
Procedure, shortened: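 Compounds (in DMSO, 100-fold stock) incubated 120 min at 23 °C with 1 nM GST-RIPK2 (aa 1-310) and 25 nM His-XIAP(BIR2 aa 152-231)-avi, plus anti-His-XL665 and anti-GST-Tb, in pH 7.5 Tris buffer. Read-out: 665/520 nm emission ratio. Normalized to no-inhibitor (0%) and 50 nM GSK583 (−100%); Amax binned A–D.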

[3] = molecular target: T2, GST-RIPK2 fusion protein (human RIPK2, amino acids 1-310) (Homo sapiens, UniProt O43353); assay: RIPK2 binding competition assay (TR-FRET, Tracer 199 displacement); conditions: 10 nM Tracer 199, 1 nM GST-RIPK2, read-out: RIPK2 IC50
T2 construct: made in house; host or cells: baculovirus infected Sf9 cells
Procedure, shortened: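 IC50 derived from the TR-FRET emission ratio (665/620 nm, 337 nm excitation), normalized with no-inhibitor and no-enzyme controls. Incubation 45 min at 22 °C, pH 7.5 Tris buffer, with final 10 nM tracer, 1 nM Sf9-expressed GST-RIPK2 fragment (aa 1-310) and 0.5 nM Tb-labelled anti-GST.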

T2 sequence (O43353 1-310): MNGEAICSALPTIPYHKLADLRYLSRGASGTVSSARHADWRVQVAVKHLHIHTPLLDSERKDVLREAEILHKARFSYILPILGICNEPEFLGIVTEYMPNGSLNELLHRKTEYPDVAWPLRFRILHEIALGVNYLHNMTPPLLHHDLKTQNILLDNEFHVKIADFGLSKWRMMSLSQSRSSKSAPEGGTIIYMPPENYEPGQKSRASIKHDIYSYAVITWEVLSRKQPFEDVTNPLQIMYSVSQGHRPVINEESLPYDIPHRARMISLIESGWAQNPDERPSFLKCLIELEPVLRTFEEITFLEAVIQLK
T1 sequence (O43353 1-310 limits assumed): as the sequence (O43353 1-310) above

SMILES | IC50 [1] [nM] | Emax [2] [%] | IC50 [2] [nM] | IC50 [3] [nM]
C[C@@H](CO)COc1cn2ncc(-c3cc(Cl)c(N)nc3F)c2cc1S(=O)(=O)C(C)(C)C [Example 199, (S)-3-((3-(6-amino-5-chloro-2-fluoropyridin-3-yl)-5-(tert-butylsulfonyl)pyrazolo [1,5-a]pyridin-6-yl)oxy)-2-methylpropan-1-ol] | 50 to 250 | > 80 | < 1 | < 1
COc1cc2ncc(-c3cc(F)c(OC)c(NS(=O)(=O)c4cnn(C)c4)c3)n2cc1C1(F)CCNCC1 [Example 276, N-(3-fluoro-5-(6-(4-fluoropiperidin-4-yl)-7-methoxyimidazo[1,2-a]pyridin-3-yl)-2-methoxyphenyl)-1-methyl-1H-pyrazole-4-sulfonamide] | 50 to 250 | > 80 | < 1 | 1 to 2.5
COc1cc2ncc(-c3ccc4nn(C)cc4c3)n2cc1S(=O)(=O)C(C)(C)C [Example 111, 5-(6-(tert-butylsulfonyl)-7-methoxyimidazo[1,2-a]pyridin-3-yl)-2-methyl-2H-indazole] | > 1000 | < 30 | > 20 | > 20
CC(C)(C)S(=O)(=O)c1cn2c(-c3ccc4[nH]cnc4c3)cnc2cc1OCCO [Example 207, 2-((3-(1H-benzo[d]imidazol-5-yl)-6-(tert-butylsulfonyl)imidazo [1,2-a]pyridin-7-yl)oxy)ethan-1-ol] | > 1000 | < 30 | > 20 | 2.5 to 20
CC(C)(C)S(=O)(=O)c1cn2c(-c3cc4cc[nH]c4nc3F)cnc2cc1OCCO [Example 52, 2-((6-(tert-butylsulfonyl)-3-(6-fluoro-1H-pyrrolo[2,3-b]pyridin-5-yl)imidazo[1,2-a]pyridin-7-yl)oxy)ethan-1-ol] | < 50 | > 80 | < 1 | < 1
